Data on 31 compounds can be found in patent publication US10968203B2, “Pyrimidinyl-pyridyloxy-naphthyl compounds and methods of treating IRE1-related diseases and disorders” (Genentech, Inc., priority 2017, dated 2021).

Where a name gives a salt, the structure may show the parent alone.

For orientation: IC50 means the point on the concentration scale where inhibition reaches its midpoint.

For one assay, the system named is XBP1s-luc 293 LUC. In words: cellular PD assay, XBP1s-LUC reporter (Example 903). The class given is cell-based. The note with it: Table 1; read-out: XBP1s-luc 293 LUC (IC50). Summed up:
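Cellular IRE1α pathway activity was quantified from the luciferase signal of an XBP1-Luc reporter, where the luciferase fusion is in frame and expressed only from the spliced XBP1 transcript.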
On to `Cc1ccc2c(NS(=O)(=O)CC(C)C)cccc2c1Oc1ncccc1-c1ccnc(N[C@@H]2CNC[C@H](C)C2)n1` [Example 304, 2-Methyl-N-(6-methyl-5-((3-(2-(((3S,5R)-5-methylpiperidin-3-yl)amino)pyrimidin-4-yl)pyridin-2-yl)oxy)naphthalen-1-yl)propane-1-sulfonamide], for which the IC50 was 105 nM.
For `Cc1ccc2c(NC(=O)Cc3ccccc3F)cccc2c1Oc1ncccc1-c1ccnc(N[C@H]2CCCNC2)n1` [Example 177, (S)-2-(2-Fluorophenyl)-N-(6-methyl-5-((3-(2-(piperidin-3-ylamino)pyrimidin-4-yl)pyridin-2-yl)oxy)naphthalen-1-yl)acetamide], the half-inhibitory concentration (IC50) came to 108 nM.
Regarding `CCCS(=O)(=O)Nc1c(F)ccc2c(Oc3ncccc3-c3ccnc(N[C@H]4CCCNC4)n3)c(C)ccc12` [Example 221, (S)—N-(2-Fluoro-6-methyl-5-((3-(2-(piperidin-3-ylamino)pyrimidin-4-yl)pyridin-2-yl)oxy)naphthalen-1-yl)propane-1-sulfonamide], the IC50 came to 37 nM.
Consider `Cc1ccc2c(NS(=O)(=O)CBr)cccc2c1Oc1ncccc1-c1ccnc(N[C@H]2CCCNC2)n1` [Example 172, (S)-1-Bromo-N-(6-methyl-5-(3-(2-(piperidin-3-ylamino)pyrimidin-4-yl)pyridin-2-yloxy)naphthalen-1-yl)methanesulfonamide], for which the IC50 turned out to be 393 nM.
On the same count and under the same terms, for `Cc1ccc2c(NC(=O)CC3CCCCC3)cccc2c1Oc1ncccc1-c1ccnc(N[C@@H]2CNC[C@H](C)C2)n1` [Example 303, 2-Cyclohexyl-N-(6-methyl-5-((3-(2-(((3S,5R)-5-methylpiperidin-3-yl)amino)pyrimidin-4-yl)pyridin-2-yl)oxy)naphthalen-1-yl)acetamide] the value was 126 nM; for `Cc1ccc2c(NC(=O)[C@@H]3CCC(C)C3)cccc2c1Oc1ncccc1-c1ccnc(N[C@H]2CCCNC2)n1` (single isomer, unassigned) [Example 277], 171 nM.
For the compound `Cc1ccc2c(NS(=O)(=O)CC(C)(C)C)cccc2c1Oc1ncccc1-c1ccnc(N[C@H]2CCCNC2)n1` [Example 139, (S)-2,2-Dimethyl-N-(6-methyl-5-((3-(2-(piperidin-3-ylamino)pyrimidin-4-yl)pyridin-2-yl)oxy)naphthalen-1-yl)propane-1-sulfonamide], the IC50 was 241 nM.
For the compound `Cc1ccc2c(Nc3nn(C)cc3F)cccc2c1Oc1ncccc1-c1ccnc(N[C@H]2CCCNC2)n1` [Example 360, (S)-4-(2-((5-((4-Fluoro-1-methyl-1H-pyrazol-3-yl)amino)-2-methylnaphthalen-1-yl)oxy)pyridin-3-yl)-N-(piperidin-3-yl)pyrimidin-2-amine], the IC50 turned out to be 455 nM.
Regarding `Cc1ccc2c(NS(=O)(=O)Cc3ccccc3)c(F)ccc2c1Oc1ncccc1-c1ccnc(N[C@@H]2CNC[C@H](C)C2)n1` [Example 378, N-(2-Fluoro-6-methyl-5-((3-(2-(((3S,5R)-5-methylpiperidin-3-yl)amino)pyrimidin-4-yl)pyridin-2-yl)oxy)naphthalen-1-yl)-1-phenylmethanesulfonamide], the IC50 was 1.41 nM.
Consider `Cc1ccc2c(NC(=O)[C@@H]3CC3(C)C)cccc2c1Oc1ncccc1-c1ccnc(N[C@H]2CCCNC2)n1` (single isomer, unassigned) [Example 287], for which the IC50 is 39.4 nM.
Regarding `Cc1ccc2c(NS(=O)(=O)[C@@H](C)c3ccccc3)cccc2c1Oc1ncccc1-c1ccnc(N[C@H]2CCCNC2)n1` (single isomer, unassigned) [Example 214], the IC50 came out at 76 nM.
With `Cc1ccc2c(NC(=O)Cc3ccc(F)cc3)cccc2c1Oc1ncccc1-c1ccnc(N[C@H]2CCCNC2)n1` [Example 199, (S)-2-(4-Fluorophenyl)-N-(6-methyl-5-((3-(2-(piperidin-3-ylamino)pyrimidin-4-yl)pyridin-2-yl)oxy)naphthalen-1-yl)acetamide], the IC50 was 155 nM.
Regarding `Cc1ccc2c(NC(=O)[C@H]3C[C@H]3F)cccc2c1Oc1ncccc1-c1ccnc(N[C@H]2CCCNC2)n1` [Example 222, (1R,2R)-2-Fluoro-N-[6-methyl-5-[[3-[2-[[(3S)-3-piperidyl]amino]pyrimidin-4-yl]-2-pyridyl]oxy]-1-naphthyl]cyclopropanecarboxamide], the IC50 turned out to be 93 nM.
Consider `Cc1ccc2c(NC(=O)C3CC4(CCC4)C3)cccc2c1Oc1ncccc1-c1ccnc(N[C@H]2CCCNC2)n1` [Example 255, (S)—N-(6-Methyl-5-((3-(2-(piperidin-3-ylamino)pyrimidin-4-yl)pyridin-2-yl)oxy)naphthalen-1-yl)spiro[3.3]heptane-2-carboxamide], for which the IC50 was determined as 182 nM.
On to `COC(=O)CNc1cccc2c(Oc3ncccc3-c3ccnc(N[C@H]4CCCNC4)n3)c(C)ccc12` [Example 314, (S)-Methyl 2-((6-methyl-5-((3-(2-(piperidin-3-ylamino)pyrimidin-4-yl)pyridin-2-yl)oxy)naphthalen-1-yl)amino)acetate], for which the IC50 worked out at 208 nM.
With `Cc1ccc2c(NS(=O)(=O)Cc3ccccc3)cccc2c1Oc1ncccc1-c1ccnc(N[C@@H]2CNC[C@H](F)C2)n1` [Example 148, N-(5-((3-(2-(((3S,5R)-5-Fluoropiperidin-3-yl)amino)pyrimidin-4-yl)pyridin-2-yl)oxy)-6-methylnaphthalen-1-yl)-1-phenylmethanesulfonamide], the IC50 was determined as 211 nM.
For the compound `CCCS(=O)(=O)Nc1c(F)ccc2c(Oc3ncccc3-c3ccnc(N[C@@H]4CNCC[C@H]4C)n3)c(C)ccc12` (single isomer, unassigned) [Example 327], the IC50 was 254 nM.
`Cc1ccc2c(NC(=O)[C@H]3CC3(F)F)cccc2c1Oc1ncccc1-c1ccnc(N[C@H]2CCCNC2)n1` (single isomer, unassigned) [Example 179]: the IC50 came out at 76 nM.
In the case of `Cc1ccc2c(NC[C@H](C)O)cccc2c1Oc1ncccc1-c1ccnc(N[C@H]2CCCNC2)n1` [Example 301, (S)-1-((6-Methyl-5-((3-(2-((S)-piperidin-3-ylamino)pyrimidin-4-yl)pyridin-2-yl)oxy)naphthalen-1-yl)amino)propan-2-ol], the IC50 came to 424 nM.
`Cc1ccc2c(N3CCCC3=O)cccc2c1Oc1ncccc1-c1ccnc(N[C@H]2CCCNC2)n1` [Example 216, (S)-1-(6-Methyl-5-((3-(2-(piperidin-3-ylamino)pyrimidin-4-yl)pyridin-2-yl)oxy)naphthalen-1-yl)pyrrolidin-2-one]: the IC50 worked out at 260 nM.
Take `Cc1ccc2c(NS(=O)(=O)CF)cccc2c1Oc1ncccc1-c1ccnc(N[C@H]2CCCNC2)n1` [Example 159, (S)-1-Fluoro-N-(6-methyl-5-(3-(2-(piperidin-3-ylamino)pyrimidin-4-yl)pyridin-2-yloxy)naphthalen-1-yl)methanesulfonamide]: the IC50 amounted to 174 nM.
Regarding `CC[C@@H]1CCN(c2cccc3c(Oc4ncccc4-c4ccnc(N[C@@H]5CNC[C@H](C)C5)n4)c(C)ccc23)C1=O` (single isomer, unassigned) [Example 331], the IC50 was 57.9 nM.
As to `Cc1ccc2c(NC(=O)CC3CCCCC3)cccc2c1Oc1ncccc1-c1ccnc(N[C@H]2CCCNC2)n1` [Example 130, (S)-2-Cyclohexyl-N-(6-methyl-5-((3-(2-(piperidin-3-ylamino)pyrimidin-4-yl)pyridin-2-yl)oxy)naphthalen-1-yl)acetamide], the IC50 came to 228 nM.
As to `Cc1ccc2c(NS(=O)(=O)Cc3ccccc3CO)cccc2c1Oc1ncccc1-c1ccnc(N[C@H]2CCCNC2)n1` [Example 166, (S)-1-(2-(Hydroxymethyl)phenyl)-N-(6-methyl-5-((3-(2-(piperidin-3-ylamino)pyrimidin-4-yl)pyridin-2-yl)oxy)naphthalen-1-yl)methanesulfonamide], the concentration for half-maximal inhibition (IC50) stood at 118 nM.

The same assay, now with this note: Table 2; read-out: XBP1s-luc 293 LUC (IC50).
Take `Cc1ccc2c(NC(=O)/C=C/C(F)(F)F)cccc2c1Oc1ncccc1-c1ccnc(N[C@H]2CCCNC2)n1` [Example 407, (S)-4,4,4-Trifluoro-N-(6-methyl-5-((3-(2-(piperidin-3-ylamino)pyrimidin-4-yl)pyridin-2-yl)oxy)naphthalen-1-yl)but-2-enamide]: the IC50 was determined as 221 nM.
Still for that read-out and setting: then `O=S(=O)(Cc1ccccc1)Nc1cccc2c(Oc3ncccc3-c3ccnc(N[C@H]4CCCNC4)n3)cccc12` [Example 452, (S)-1-Phenyl-N-(5-((3-(2-(piperidin-3-ylamino)pyrimidin-4-yl)pyridin-2-yl)oxy)naphthalen-1-yl)methanesulfonamide], with 19 nM; and `Cc1ccc2c(N[C@@H]3CCC[C@H]3O)cccc2c1Oc1ncccc1-c1ccnc(N[C@H]2CCCNC2)n1` (single isomer, unassigned) [Example 395, hydrochloride], with 109 nM.
As for `COC(C)CS(=O)(=O)Nc1c(F)ccc2c(Oc3ncccc3-c3ccnc(N[C@H]4CCCNC4)n3)c(C)ccc12` (stereo partly drawn) [Example 404, N-(2-Fluoro-6-methyl-5-((3-(2-(((S)-piperidin-3-yl)amino)pyrimidin-4-yl)pyridin-2-yl)oxy)naphthalen-1-yl)-2-methoxypropane-1-sulfonamide], the IC50 was 34 nM.
With `Cc1ccc2c(N[C@@H]3CCCC[C@H]3O)cccc2c1Oc1ncccc1-c1ccnc(N[C@H]2CCCNC2)n1` (single isomer, unassigned) [Example 446, hydrochloride], the IC50 stood at 67 nM.
On to `Cc1ccc2c(NS(=O)(=O)CCC(F)(F)F)c(F)ccc2c1Oc1ncccc1-c1ccnc(N[C@@H]2CNC[C@@H](F)C2)n1` (single isomer, unassigned) [Example 432, hydrochloride], for which the IC50 was determined as 28 nM.
Turning to `Cc1ccc2c(NS(=O)(=O)Cc3cscn3)c(F)ccc2c1Oc1ncccc1-c1ccnc(N[C@H]2CCCNC2)n1` [Example 402, (S)—N-(2-Fluoro-6-methyl-5-((3-(2-(piperidin-3-ylamino)pyrimidin-4-yl)pyridin-2-yl)oxy)naphthalen-1-yl)-1-(thiazol-4-yl)methanesulfonamide hydrochloride], the IC50 is 51 nM.
